Laboratory results as given in patent publication US8580802B2, “Pyrrolo[2,3-D]pyrimidines as inhibitors of Janus kinases” (Vertex Pharmaceuticals Incorporated, priority 2005, dated 2013).

Columns and labels:
JAK2 = JAK2 (Homo sapiens, UniProt O60674); experiment: JAK2 Inhibition Assay; assay type: biochemical; conditions: JAK-2 enzyme, 15 μM poly(Glu)4Tyr, 12 μM ATP
Description: (§1) Compounds were screened for their ability to inhibit JAK3 using the assay shown below. Reactions were carried out in a kinase buffer containing 100 mM HEPES (pH 7.4), 1 mM DTT, 10 mM MgCl2, 25 mM NaCl, and 0.01% BSA. Substrate concentrations in the assay were 5 μM ATP (200 uCi/μmole ATP) and 1 μM poly(Glu)4Tyr. Reactions were carried out 25° C. and 1 nM JAK3.
(§2) To each well of a 96 well polycarbonate plate was added 1.5 μl of a candidate JAK3 inhibitor along with 50 μl of kinase buffer containing 2 μM poly(Glu)4Tyr and 10 μM ATP. This was then mixed and 50 μl of kinase buffer containing 2 nM JAK3 enzyme was added to start the reaction. After 20 minutes at room temperature (25° C.), the reaction was stopped with 50 μl of 20% trichloroacetic acid (TCA) that also contained 0.4 mM ATP. The entire contents of each well were then transferred to a 96 well glass fiber filter plate using a TomTek Cell Harvester. After washing, 60 μl of scintillation fluid was added and ^33P incorporation detected on a Perkin Elmer TopCount.
The assays were as described above in Example 36 except that JAK-2 enzyme was used, the final poly(Glu)4Tyr concentration was 15 μM, and final ATP concentration was 12 μM.

JAK3 = molecular target: T1, JAK3 (Homo sapiens, UniProt P52333); experiment: JAK3 Inhibition Assay; assay type: biochemical; conditions: 1 nM JAK3, 1 μM poly(Glu)4Tyr, 5 μM ATP, 25° C.; read-out: enzyme inhibition data (Ki) JAK3
T1 sequence (P52333 1-1124): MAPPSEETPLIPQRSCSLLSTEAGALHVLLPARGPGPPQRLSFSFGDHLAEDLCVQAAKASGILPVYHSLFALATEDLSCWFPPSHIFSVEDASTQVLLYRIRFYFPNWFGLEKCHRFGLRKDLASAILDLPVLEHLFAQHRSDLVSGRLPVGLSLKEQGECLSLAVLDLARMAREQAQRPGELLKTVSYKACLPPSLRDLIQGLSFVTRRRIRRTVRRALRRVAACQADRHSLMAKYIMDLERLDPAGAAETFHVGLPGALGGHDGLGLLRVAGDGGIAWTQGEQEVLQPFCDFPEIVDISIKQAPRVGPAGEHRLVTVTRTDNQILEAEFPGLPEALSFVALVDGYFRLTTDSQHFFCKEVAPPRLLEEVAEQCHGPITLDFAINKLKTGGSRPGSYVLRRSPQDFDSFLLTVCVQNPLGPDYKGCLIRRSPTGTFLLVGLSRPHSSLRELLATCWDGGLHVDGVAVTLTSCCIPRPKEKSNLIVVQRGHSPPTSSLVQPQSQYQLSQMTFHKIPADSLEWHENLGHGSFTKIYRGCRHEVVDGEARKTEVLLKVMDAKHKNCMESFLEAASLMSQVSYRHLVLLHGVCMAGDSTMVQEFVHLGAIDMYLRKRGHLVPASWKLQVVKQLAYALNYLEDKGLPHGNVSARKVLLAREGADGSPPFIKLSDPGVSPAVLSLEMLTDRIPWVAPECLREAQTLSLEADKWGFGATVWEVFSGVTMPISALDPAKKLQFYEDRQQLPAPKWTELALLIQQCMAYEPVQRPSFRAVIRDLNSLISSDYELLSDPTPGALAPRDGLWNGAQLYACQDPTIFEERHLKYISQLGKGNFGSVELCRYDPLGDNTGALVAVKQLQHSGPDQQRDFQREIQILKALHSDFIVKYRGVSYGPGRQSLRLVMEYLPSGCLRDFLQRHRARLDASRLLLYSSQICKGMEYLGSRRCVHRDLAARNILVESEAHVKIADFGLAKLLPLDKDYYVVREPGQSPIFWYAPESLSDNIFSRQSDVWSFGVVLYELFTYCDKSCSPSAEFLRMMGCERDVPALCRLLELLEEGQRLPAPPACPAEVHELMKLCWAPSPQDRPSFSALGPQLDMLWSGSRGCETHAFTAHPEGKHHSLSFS
Description: as §1, §2

Chain of JAK2 (O60674 whole entry): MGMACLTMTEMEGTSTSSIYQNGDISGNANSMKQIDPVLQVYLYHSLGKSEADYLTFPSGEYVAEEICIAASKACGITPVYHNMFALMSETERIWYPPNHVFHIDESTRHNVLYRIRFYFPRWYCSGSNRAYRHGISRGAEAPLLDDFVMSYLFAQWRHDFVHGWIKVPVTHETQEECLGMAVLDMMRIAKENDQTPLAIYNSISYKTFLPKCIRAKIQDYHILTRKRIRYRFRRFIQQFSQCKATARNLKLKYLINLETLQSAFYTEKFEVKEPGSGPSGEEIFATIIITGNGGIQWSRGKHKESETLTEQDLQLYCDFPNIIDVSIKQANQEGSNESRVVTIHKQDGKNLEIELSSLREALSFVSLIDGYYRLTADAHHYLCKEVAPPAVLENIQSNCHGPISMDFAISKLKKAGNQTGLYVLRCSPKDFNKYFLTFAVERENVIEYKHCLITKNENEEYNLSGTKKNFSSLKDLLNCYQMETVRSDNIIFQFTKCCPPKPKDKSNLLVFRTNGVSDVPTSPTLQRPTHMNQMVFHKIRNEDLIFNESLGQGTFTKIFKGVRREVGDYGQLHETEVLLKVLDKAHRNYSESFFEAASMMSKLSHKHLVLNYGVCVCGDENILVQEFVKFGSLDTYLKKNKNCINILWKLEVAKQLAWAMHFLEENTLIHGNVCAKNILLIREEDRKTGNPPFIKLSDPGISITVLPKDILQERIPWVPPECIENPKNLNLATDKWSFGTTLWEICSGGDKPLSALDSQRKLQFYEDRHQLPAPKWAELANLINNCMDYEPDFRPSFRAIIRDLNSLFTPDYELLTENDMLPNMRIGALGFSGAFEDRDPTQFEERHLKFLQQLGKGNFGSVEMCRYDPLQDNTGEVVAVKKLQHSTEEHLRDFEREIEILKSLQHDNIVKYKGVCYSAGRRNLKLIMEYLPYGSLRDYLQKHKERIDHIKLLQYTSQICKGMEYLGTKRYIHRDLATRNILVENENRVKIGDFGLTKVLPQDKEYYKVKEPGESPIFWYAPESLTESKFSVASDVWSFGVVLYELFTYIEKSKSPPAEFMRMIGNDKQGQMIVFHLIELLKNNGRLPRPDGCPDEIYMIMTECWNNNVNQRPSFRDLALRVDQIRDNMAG

SMILES | Ki (JAK2) | Ki (JAK3)
C[C@H](Nc1cc(OC2CCOC2)nc(-c2c[nH]c3ncncc23)n1)C(=O)NCC(F)(F)F (stereo partly drawn) [Compound 10] | > 5000 nM | 500 to 5000 nM
O=C(NCC(F)(F)F)[C@H](CO)Nc1nc(-c2c[nH]c3ncncc23)ncc1F [Compound 50] | 500 to 5000 nM | < 500 nM
CC(C)(Nc1nc(-c2c[nH]c3ncncc23)ncc1F)C(=O)NCCF [Compound 106] | < 500 nM | < 500 nM
CCNC(=O)C(CC(F)(F)F)Nc1nc(-c2c[nH]c3ncncc23)ncc1F (stereo not drawn) [Compound 44, 2-(5-fluoro-2-(7H-pyrrolo[2,3-d]pyrimidin-5-yl)pyrimidin-4-ylamino)-N-ethyl-4,4,4-trifluorobutanamide] | 500 to 5000 nM | 500 to 5000 nM
CNC(=O)C(CC(F)(F)F)Nc1nc(-c2c[nH]c3ncncc23)ncc1F (stereo not drawn) [Compound 43, 2-(5-fluoro-2-(7H-pyrrolo[2,3-d]pyrimidin-5-yl)pyrimidin-4-ylamino)-4,4,4-trifluoro-N-methylbutanamide] | 500 to 5000 nM | 500 to 5000 nM
C[C@@H](Nc1ccnc(-c2c[nH]c3ncncc23)n1)C(=O)NCC(F)(F)F [Compound 39, (R)-2-(2-(7H-pyrrolo[2,3-d]pyrimidin-5-yl)pyrimidin-4-ylamino)-N-(2,2,2-trifluoroethyl)propanamide] | < 500 nM | < 500 nM
O=C(CCNc1nc(-c2c[nH]c3ncncc23)ncc1F)NCC(F)(F)F [Compound 71] | < 500 nM | < 500 nM
C[C@@H](Nc1nc(-c2c[nH]c3ncncc23)ncc1F)C(=O)N(C)CC(F)(F)F [Compound 104] | 500 to 5000 nM | < 500 nM
C[C@H](Nc1nc(-c2c[nH]c3ncncc23)nc(N2CCOCC2)n1)C(=O)NCC(F)(F)F [Compound 37, (S)-2-(4-morpholino-6-(7H-pyrrolo[2,3-d]pyrimidin-5-yl)-1,3,5-triazin-2-ylamino)-N-(2,2,2-trifluoroethyl)propanamide] | > 5000 nM | > 5000 nM
CC[C@@](C)(Nc1nc(-c2c[nH]c3ncncc23)ncc1F)C(=O)NCC(F)(F)F [Compound 81] | < 500 nM | < 500 nM
CC[C@H](Nc1nc(-c2c[nH]c3ncncc23)ncc1F)C(=O)NCC(F)(F)F [Compound 41, (S)-2-(5-fluoro-2-(7H-pyrrolo[2,3-d]pyrimidin-5-yl)pyrimidin-4-ylamino)-N-(2,2,2-trifluoroethyl)butanamide] | 500 to 5000 nM | < 500 nM
C[C@H](Nc1cc(C(=O)N2CCC(O)CC2)nc(-c2c[nH]c3ncncc23)n1)C(=O)NCC(F)(F)F [Compound 13] | 500 to 5000 nM | 500 to 5000 nM
COCCNC(=O)c1cc(N[C@@H](C)C(=O)NCC(F)(F)F)nc(-c2c[nH]c3ncncc23)n1 [Compound 14] | 500 to 5000 nM | < 500 nM
CC[C@](C)(Nc1ccnc(-c2c[nH]c3ncncc23)n1)C(=O)NCC(F)(F)F [Compound 88] | < 500 nM | < 500 nM
O=C(NCC(F)(F)F)[C@H](CO)Nc1ccnc(-c2c[nH]c3ncncc23)n1 [Compound 51] | > 5000 nM | > 5000 nM
O=C(NCC(F)(F)F)C1(Nc2nc(-c3c[nH]c4ncncc34)ncc2F)CC1 [Compound 57] | < 500 nM | < 500 nM
C[C@H](Nc1ccnc(-c2c[nH]c3ncncc23)n1)C(=O)NCC(F)(F)F [Compound 5, (S)-2-(2-(7H-pyrrolo[2,3-d]pyrimidin-5-yl)pyrimidin-4-ylamino)-N-(2,2,2-trifluoroethyl)propanamide] | < 500 nM | < 500 nM
COC[C@@H]1CCCN1c1nc(-c2c[nH]c3ncncc23)ncc1F [Compound 23, 5-(5-fluoro-4-((S)-2-(methoxymethyl)pyrrolidin-1-yl)pyrimidin-2-yl)-7H-pyrrolo[2,3-d]pyrimidine] | 500 to 5000 nM | 500 to 5000 nM
CC1CCN(C(=O)c2cc(N[C@@H](C)C(=O)NCC(F)(F)F)nc(-c3c[nH]c4ncncc34)n2)CC1 [Compound 7] | 500 to 5000 nM | < 500 nM
CC(C)[C@H](C)NC(=O)c1cc(N[C@@H](C)C(=O)NCC(F)(F)F)nc(-c2c[nH]c3ncncc23)n1 [Compound 16] | 500 to 5000 nM | 500 to 5000 nM
COC[C@H]1CCCN1c1nc(-c2c[nH]c3ncncc23)ncc1F [Compound 25, 5-(5-fluoro-4-((R)-2-(methoxymethyl)pyrrolidin-1-yl)pyrimidin-2-yl)-7H-pyrrolo[2,3-d]pyrimidine] | 500 to 5000 nM | 500 to 5000 nM
CC[C@@H](Nc1ccnc(-c2c[nH]c3ncncc23)n1)C(=O)NCC(F)(F)F [Compound 69] | < 500 nM | < 500 nM
C[C@@H](Nc1ccnc(-c2c[nH]c3ncncc23)n1)C(=O)N(C)CC(F)(F)F [Compound 103] | 500 to 5000 nM | < 500 nM

Other lines, results leading:

Ki (JAK2) | Ki (JAK3) | SMILES
< 500 nM | < 500 nM | CN(c1ccnc(-c2c[nH]c3ncncc23)n1)C1(C(=O)NCC(F)(F)F)CC1 [Compound 96]
> 5000 nM | 500 to 5000 nM | COC[C@H](Nc1nc(-c2c[nH]c3ncncc23)nc2ccccc12)C(=O)NCC(F)(F)F [Compound 47]
500 to 5000 nM | < 500 nM | C[C@H](Nc1cc(-c2ccccc2)nc(-c2c[nH]c3ncncc23)n1)C(=O)NCC(F)(F)F [Compound 18, (S)-2-(6-phenyl-2-(7H-pyrrolo[2,3-d]pyrimidin-5-yl)pyrimidin-4-ylamino)-N-(2,2,2-trifluoroethyl)propanamide]
< 500 nM | < 500 nM | CC(C)(Nc1nc(-c2c[nH]c3ncncc23)nc2ccccc12)C(=O)NCC(F)(F)F [Compound 105]
< 500 nM | < 500 nM | O=C(CNc1ccnc(-c2c[nH]c3ncncc23)n1)NCC(F)(F)F [Compound 76]
500 to 5000 nM | < 500 nM | C[C@H](Nc1cc(C#N)cc(-c2c[nH]c3ncncc23)n1)C(=O)NCC(F)(F)F [Compound 19, (S)-2-(4-cyano-6-(7H-pyrrolo[2,3-d]pyrimidin-5-yl)pyridin-2-ylamino)-N-(2,2,2-trifluoroethyl)propanamide]
500 to 5000 nM | 500 to 5000 nM | OC[C@H]1CCCN1c1nc(-c2c[nH]c3ncncc23)ncc1F [Compound 22, ((R)-1-(5-fluoro-2-(7H-pyrrolo[2,3-d]pyrimidin-5-yl)pyrimidin-4-yl)pyrrolidin-2-yl)methanol]
< 500 nM | < 500 nM | O=C(NCC(F)(F)F)C1(Nc2ccnc(-c3c[nH]c4ncncc34)n2)CCC1 [Compound 64]
< 500 nM | < 500 nM | CC1(C(=O)NCC(F)(F)F)CCCN1c1nc(-c2c[nH]c3ncncc23)ncc1F (stereo not drawn) [Compound 102]
> 5000 nM | 500 to 5000 nM | O=C(NCC(F)(F)F)[C@@H]1CCCN1c1nc(-c2c[nH]c3ncncc23)ncc1F [Compound 26]
500 to 5000 nM | < 500 nM | C[C@H](Nc1nc(-c2c[nH]c3ncncc23)ccc1[N+](=O)[O-])C(=O)NCC(F)(F)F [Compound 46]
< 500 nM | < 500 nM | O=C(NCC(F)(F)F)C1(Nc2ccnc(-c3c[nH]c4ncncc34)n2)CCOC1 (stereo not drawn) [Compound 101]
< 500 nM | < 500 nM | N#CCC(=O)N1CC=C(c2cccc(-c3c[nH]c4ncncc34)n2)CC1 [Compound 30, 3-(4-(6-(7H-pyrrolo[2,3-d]pyrimidin-5-yl)pyridin-2-yl)-5,6-dihydropyridin-1(2H)-yl)-3-oxopropanenitrile]
